Measurements reported in BindingDB's records for doi:10.1096/fasebj.10.12.8903510 (Roche Bioscience, 1996).

Each compound was assayed against 5-hydroxytryptamine receptor 4 (Cavia porcellus, UniProt O70528).
5-hydroxytryptamine receptor 4, sequence (O70528 whole entry): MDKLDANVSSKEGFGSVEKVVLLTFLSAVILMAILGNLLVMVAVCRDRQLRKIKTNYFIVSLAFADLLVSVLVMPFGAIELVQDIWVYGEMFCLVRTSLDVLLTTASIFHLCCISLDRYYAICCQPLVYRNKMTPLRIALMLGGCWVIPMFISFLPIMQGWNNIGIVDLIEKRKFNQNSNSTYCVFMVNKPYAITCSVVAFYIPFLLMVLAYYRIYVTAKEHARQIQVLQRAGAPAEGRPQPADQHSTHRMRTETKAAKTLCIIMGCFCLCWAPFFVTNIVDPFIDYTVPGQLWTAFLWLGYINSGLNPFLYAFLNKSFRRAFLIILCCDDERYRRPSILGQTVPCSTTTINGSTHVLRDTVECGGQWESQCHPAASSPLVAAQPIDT

Ki	SMILES
30 pM	COc1[nH]c2ccc(F)cc2c1C(=O)OCC1CCN(CCNS(C)(=O)=O)CC1 [GR-125487]
3980 pM	COc1cc(N)c(Cl)cc1C(=O)OCCCN1CCCCC1
2510 pM	CCN(CC)CCOC(=O)c1cc(Cl)c(N)cc1OC [SDZ-205557]
60 pM	Cn1cc(C(=O)OCC2CCN(CCNS(C)(=O)=O)CC2)c2ccccc21 [GR 113808]
1990 pM	COc1cc(COc2cc(N)c(Cl)cc2C(=O)CCCCN2CCCCC2)cc(OC)c1 [RS-67532]
10 pM	CCCCN1CCC(COC(=O)c2cc(Cl)c(N)c3c2OCCO3)CC1 [CAS_121881]

SMILES	Ki
CCCCN1CCC(CNC(=O)c2c3n(c4ccccc24)CCCO3)CC1 [SB-207266]	390 pM
